Reference: US5250283A, “Organic contrast agent analog and method of making same” (priority 1992, dated 1993)
Counter-ions that a name gives are not always drawn.

Legend:
[1] = Plasma concentration after i.v. IOP or TFA-IOP in rats; assay type: in vivo; conditions: rat
[2] = Urinary excretion after i.v. IOP or TFA-IOP in rats; assay type: in vivo; conditions: rat
[3] = Biliary excretion and bile flow after i.v. TFA-IOP (100 umol/kg) or IOP (100 in text, 104 umol/kg in tables) in rats; conditions: for Percentage of dose per kg. body wt.: rat bile; for Percentage of dose per kg. body wt. / Bile flow / Bile flow per kg b.w. / Bile flow per kg l.w. / Biliary excretion rate / Biliary excretion rate per kg b.w. / Biliary excretion rate per kg l.w. / umoles in bile sample: i.v.
Description: Tissues examined included liver, spleen, upper GI, lower GI, kidney, lung and heart. The length of each study was 90 minutes, during which time bile, urine and plasma samples were taken to monitor uptake and excretion. NMR relaxation rates for liver and plasma were also examined to note whether uptake of either compound might possible alter these parameters.

## CCC(Cc1c(I)cc(I)c(NC(=O)C(F)(F)F)c1I)C(=O)O (stereo not shown) [TFA-IOP, N-trifluoroacetyl-iopanoic acid]
[1]; plasma, iv, 100 umol/kg, 10 min
  concentration at 10 min: 863 µM
[1]; plasma, iv, 100 umol/kg, 20 min
  concentration at 20 min: 604 µM
[1]; plasma, iv, 100 umol/kg, 30 min
  concentration at 0.5 h: 573 µM
[1]; plasma, iv, 100 umol/kg, 40 min
  concentration at 40 min: 510 µM
[1]; plasma, iv, 100 umol/kg, 50 min
  concentration at 50 min: 469 µM
[1]; plasma, iv, 100 umol/kg, 60 min
  concentration at 1 h: 415 µM
[1]; plasma, iv, 100 umol/kg, 70 min
  concentration at 70 min: 374 µM
[1]; plasma, iv, 100 umol/kg, 80 min
  concentration at 80 min: 403 µM
[1]; plasma, iv, 100 umol/kg, 90 min
  concentration at 1.5 h: 360 µM
[1]; 0 min
  Plasma concentration: 0.00 µM
[2]; 0-20 min
  Urine concentration: 0 µM
[2]; 20-40 min
  Urine concentration: 0 µM
[3]; 0-10 min
  Percentage of dose per kg. body wt.: 6.48 PERCENTAGE OF DOSE per kg. bod
[3]; 10-20 min
  Percentage of dose per kg. body wt.: 11.22 PERCENTAGE OF DOSE per kg. bod
[3]; 20-30 min
  Percentage of dose per kg. body wt.: 13.78 PERCENTAGE OF DOSE per kg. bod
[3]; 30-40 min
  Percentage of dose per kg. body wt.: 12.34 PERCENTAGE OF DOSE per kg. bod
[3]; 40-50 min
  Percentage of dose per kg. body wt.: 12.30 PERCENTAGE OF DOSE per kg. bod
[3]; 50-60 min
  Percentage of dose per kg. body wt.: 12.60 PERCENTAGE OF DOSE per kg. bod
[3]; 60-70 min
  Percentage of dose per kg. body wt.: 7.73 PERCENTAGE OF DOSE per kg. bod
[3]; 70-80 min
  Percentage of dose per kg. body wt.: 7.44 PERCENTAGE OF DOSE per kg. bod
[3]; 80-90 min
  Percentage of dose per kg. body wt.: 6.37 PERCENTAGE OF DOSE per kg. bod
[3]; period 10-0 min (pre-injection)
  Percentage of dose per kg. body wt.: .70 PERCENTAGE OF DOSE per kg. bod
[3]; rat, bile, iv, 100 umol/kg
  Cmax at 1.5 h: 500 nM
  concentration at 0 h: 635 µM
  concentration at 5 min: 3010 µM
  concentration at 10 min: 3010 µM
  concentration at 0.25 h: 5780 µM
  concentration at 20 min: 5780 µM
  concentration at 25 min: 6440 µM
  concentration at 0.5 h: 6440 µM
  concentration at 35 min: 7800 µM
  concentration at 40 min: 7800 µM
  concentration at 50 min: 7640 µM
  concentration at 55 min: 8460 µM
  concentration at 1 h: 8460 µM
  concentration at 65 min: 5370 µM
  concentration at 70 min: 5370 µM
  concentration at 1.25 h: 5310 µM
  concentration at 80 min: 5310 µM
  concentration at 85 min: 4660 µM
  concentration at 1.5 h: 4660 µM
  dose excreted at 1.5 h: 40%
[3]; rat, 0-10 min
  Bile flow: .04071 mL/min
  Bile flow per kg b.w.: .09359 ml/min per kg b.w.
  Bile flow per kg l.w.: 3.127 ml/min per kg l.w.
  Biliary excretion rate: .123 µmol/min
  Biliary excretion rate per kg b.w.: .282 umoles/min per kg b.w.
  Biliary excretion rate per kg l.w.: 9.411 umoles/min per kg l.w.
  umoles in bile sample: 1.23 UMOLES
[3]; rat, 10-20 min
  Bile flow: .03675 mL/min
  Bile flow per kg b.w.: .08448 ml/min per kg b.w.
  Bile flow per kg l.w.: 2.823 ml/min per kg l.w.
  Biliary excretion rate: .212 µmol/min
  Biliary excretion rate per kg b.w.: .488 umoles/min per kg b.w.
  Biliary excretion rate per kg l.w.: 16.308 umoles/min per kg l.w.
  umoles in bile sample: 2.12 UMOLES
[3]; rat, 20-30 min
  Bile flow: .04050 mL/min
  Bile flow per kg b.w.: .09310 ml/min per kg b.w.
  Bile flow per kg l.w.: 3.111 ml/min per kg l.w.
  Biliary excretion rate: .261 µmol/min
  Biliary excretion rate per kg b.w.: .599 umoles/min per kg b.w.
  Biliary excretion rate per kg l.w.: 20.020 umoles/min per kg l.w.
  umoles in bile sample: 2.61 UMOLES
[3]; rat, 30-40 min
  Bile flow: .02992 mL/min
  Bile flow per kg b.w.: .06878 ml/min per kg b.w.
  Bile flow per kg l.w.: 2.298 ml/min per kg l.w.
  Biliary excretion rate: .233 µmol/min
  Biliary excretion rate per kg b.w.: .537 umoles/min per kg b.w.
  Biliary excretion rate per kg l.w.: 17.931 umoles/min per kg l.w.
  umoles in bile sample: 2.33 UMOLES
[3]; rat, 40-50 min
  Bile flow: .03047 mL/min
  Bile flow per kg b.w.: .07005 ml/min per kg b.w.
  Bile flow per kg l.w.: 2.34 ml/min per kg l.w.
  Biliary excretion rate: .233 µmol/min
  Biliary excretion rate per kg b.w.: .535 umoles/min per kg b.w.
  Biliary excretion rate per kg l.w.: 17.882 umoles/min per kg l.w.
  umoles in bile sample: 2.33 UMOLES
[3]; rat, 50-60 min
  Bile flow: .02817 mL/min
  Bile flow per kg b.w.: .06476 ml/min per kg b.w.
  Bile flow per kg l.w.: 2.164 ml/min per kg l.w.
  Biliary excretion rate: .238 µmol/min
  Biliary excretion rate per kg b.w.: .548 umoles/min per kg b.w.
  Biliary excretion rate per kg l.w.: 18.307 umoles/min per kg l.w.
  umoles in bile sample: 2.38 UMOLES
[3]; rat, 60-70 min
  Bile flow: .02721 mL/min
  Bile flow per kg b.w.: .06255 ml/min per kg b.w.
  Bile flow per kg l.w.: 2.09 ml/min per kg l.w.
  Biliary excretion rate: .146 µmol/min
  Biliary excretion rate per kg b.w.: .336 umoles/min per kg b.w.
  Biliary excretion rate per kg l.w.: 11.228 umoles/min per kg l.w.
  umoles in bile sample: 1.46 UMOLES
[3]; rat, 70-80 min
  Bile flow: .02653 mL/min
  Bile flow per kg b.w.: .06099 ml/min per kg b.w.
  Bile flow per kg l.w.: 2.038 ml/min per kg l.w.
  Biliary excretion rate: .141 µmol/min
  Biliary excretion rate per kg b.w.: .324 umoles/min per kg b.w.
  Biliary excretion rate per kg l.w.: 10.811 umoles/min per kg l.w.
  umoles in bile sample: 1.41 UMOLES
[3]; rat, 80-90 min
  Bile flow: .02586 mL/min
  Bile flow per kg b.w.: .05945 ml/min per kg b.w.
